Results: patent US12173018B2, “Penicillin-binding protein inhibitors” (priority 2018, dated 2024)
Where two headings read alike, the source gives them in different places.

Tests used:
P. aeruginosa PAO1 = assay: Broth microdilution MIC, P. aeruginosa PAO1; format: cell-based; conditions: Pseudomonas aeruginosa; P. aeruginosa PAO1, broth microdilution; read-out: MIC P. aeruginosa PAO1
Summary of the method: (§1)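 Strains are tested by standard CLSI broth microdilution. Log-phase cells, diluted by OD600 to 5×10^5 CFU/mL, meet 2-fold compound series and incubate 16-20 hours at 37° C before the lowest growth-free concentration is recorded.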

A. baumannii ATCC 19606 = assay: Broth microdilution MIC, A. baumannii ATCC 19606; format: cell-based; conditions: Acinetobacter baumannii, ATCC19606; A. baumannii ATCC 19606, broth microdilution; read-out: MIC A. baumannii ATCC 19606
Summary of the method: as §1

E. coli PBP3 = E. coli PBP3 (Escherichia coli (strain K12), UniProt P0AD68); assay: E. coli PBP3 Bocillin-FL fluorescence polarization competition binding assay
Sequence of E. coli PBP3 (P0AD68 whole entry): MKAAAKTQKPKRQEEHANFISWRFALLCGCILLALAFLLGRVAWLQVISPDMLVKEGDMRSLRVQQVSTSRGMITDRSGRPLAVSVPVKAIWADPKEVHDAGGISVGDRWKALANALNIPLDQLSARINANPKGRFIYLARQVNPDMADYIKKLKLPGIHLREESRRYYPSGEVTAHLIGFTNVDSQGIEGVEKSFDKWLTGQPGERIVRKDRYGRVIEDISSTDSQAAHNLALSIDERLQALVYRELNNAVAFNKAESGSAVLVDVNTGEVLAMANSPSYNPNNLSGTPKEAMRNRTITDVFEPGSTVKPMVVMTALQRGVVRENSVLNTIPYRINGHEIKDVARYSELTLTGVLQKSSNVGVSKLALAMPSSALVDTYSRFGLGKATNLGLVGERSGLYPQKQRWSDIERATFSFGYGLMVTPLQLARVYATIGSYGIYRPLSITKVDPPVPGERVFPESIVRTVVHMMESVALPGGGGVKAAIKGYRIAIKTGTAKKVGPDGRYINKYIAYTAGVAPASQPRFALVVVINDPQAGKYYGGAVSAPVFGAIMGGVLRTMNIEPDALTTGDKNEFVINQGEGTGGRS
Summary of the method: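 Competition against 0.1 μM Bocillin-FL for binding to 1.5 μM purified protein, read by fluorescence polarization for 60 min. Compounds tested from 0 to 1000 μM; EC50 taken as the concentration reducing probe binding.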

[1] = tested on: P. aeruginosa (ΔmexAB-oprM); assay: microbe, parasite or virus in culture; format: cell-based; conditions: Pseudomonas aeruginosa, read-out: MIC P. aeruginosa ΔmexAB-OprM
Summary of the method: as §1

P. aeruginosa ATCC 35151 = assay: microbe, parasite or virus in culture; format: cell-based; conditions: Pseudomonas aeruginosa, ATCC35151; hyper-permeable P. aeruginosa ATCC 35151; read-out: MIC P. aeruginosa ATCC 35151
Summary of the method: as §1

E. coli PBP1b = E. coli PBP1b (Escherichia coli (strain K12), UniProt P02919); assay: Radioligand competition binding assay with 14C-labeled boronic acid probe, PBP1b
Sequence of E. coli PBP1b (P02919 whole entry): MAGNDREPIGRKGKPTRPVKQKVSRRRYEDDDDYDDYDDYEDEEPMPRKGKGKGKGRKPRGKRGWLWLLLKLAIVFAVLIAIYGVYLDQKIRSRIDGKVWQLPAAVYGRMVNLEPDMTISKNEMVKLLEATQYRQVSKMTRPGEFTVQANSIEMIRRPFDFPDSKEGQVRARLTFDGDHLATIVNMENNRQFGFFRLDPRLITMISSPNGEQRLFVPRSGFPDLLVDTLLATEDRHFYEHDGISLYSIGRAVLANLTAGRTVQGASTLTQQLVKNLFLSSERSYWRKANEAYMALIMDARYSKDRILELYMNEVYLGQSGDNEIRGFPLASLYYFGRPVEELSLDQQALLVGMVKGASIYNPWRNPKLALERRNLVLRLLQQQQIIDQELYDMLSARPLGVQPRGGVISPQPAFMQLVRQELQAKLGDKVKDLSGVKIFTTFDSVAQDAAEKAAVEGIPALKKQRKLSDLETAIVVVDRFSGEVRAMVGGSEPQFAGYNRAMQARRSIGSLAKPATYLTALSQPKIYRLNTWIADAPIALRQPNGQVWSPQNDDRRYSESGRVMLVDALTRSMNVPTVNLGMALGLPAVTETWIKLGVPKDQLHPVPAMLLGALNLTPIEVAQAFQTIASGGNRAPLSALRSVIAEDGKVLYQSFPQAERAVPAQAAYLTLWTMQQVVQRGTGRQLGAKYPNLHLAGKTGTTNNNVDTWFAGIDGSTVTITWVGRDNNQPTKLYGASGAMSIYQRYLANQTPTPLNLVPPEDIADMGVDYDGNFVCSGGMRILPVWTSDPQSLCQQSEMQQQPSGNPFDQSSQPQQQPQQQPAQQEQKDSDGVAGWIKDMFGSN

[2] = fluorescence polarization competition binding with Bocillin-FL, read-out: E. coli K12 PBP3 Potency

SMILES | MIC (P. aeruginosa PAO1) [µg/mL] | MIC (A. baumannii ATCC 19606) [µg/mL] | EC50 (E. coli PBP3; [2]) [µM] | MIC [1] [µg/mL] | MIC (P. aeruginosa ATCC 35151) [µg/mL] | EC50 (E. coli PBP3) [µM] | EC50 (E. coli PBP1b) [µM]
CCN1CCN(C(=O)NC(C(=O)N[C@H]2Cc3cccc(C(=O)O)c3OB2O)c2nc(N)sc2F)C(=O)C1=O (stereo partly drawn) [Example 205, (3R)-3-(2-(2-amino-5-fluorothiazol-4-yl)-2-(4-ethyl-2,3-dioxopiperazine-1-carboxamido)acetamido)-2-hydroxy-3,4-dihydro-2H-benzo[e][1,2]oxaborinine-8-carboxylic acid] | > 128 | 32 to 64 | < 30 | 2 to 4 | < 0.25 | – | –
CCN1CCN(C(=O)N[C@H](C(=O)N[C@H]2Cc3ccc(F)c(C(=O)O)c3OB2O)c2ccc(O)c(O)c2Cl)C(=O)C1=O [Example 188, (R)-3-((S)-2-(2-chloro-3,4-dihydroxyphenyl)-2-(4-ethyl-2,3-dioxopiperazine-1-carboxamido)acetamido)-7-fluoro-2-hydroxy-3,4-dihydro-2H-benzo[e][1,2]oxaborinine-8-carboxylic acid] | 8 to 16 | 32 to 64 | – | 0.5 to 1 | 0.5 to 1 | 30 to 500 | –
CC[C@H]1CN(CC)C(=O)C(=O)N1C(=O)NC(C(=O)N[C@H]1Cc2cccc(C(=O)O)c2OB1O)c1ncc(O)cc1F (stereo partly drawn) [Example 218, (3R)-3-(2-((S)-4,6-diethyl-2,3-dioxopiperazine-1-carboxamido)-2-(3-fluoro-5-hydroxypyridin-2-yl)acetamido)-2-hydroxy-3,4-dihydro-2H-benzo[e][1,2]oxaborinine-8-carboxylic acid] | > 128 | > 128 | < 30 | 32 to 64 | 2 to 4 | – | –
O=C(O)c1c(F)ccc2c1OB(O)[C@@H](NC(=O)C(NC(=O)N1CCN(CCF)C(=O)C1=O)c1ncc(O)cc1F)C2 (stereo partly drawn) [Example 183, (3R)-7-fluoro-3-(2-(3-fluoro-5-hydroxypyridin-2-yl)-2-(4-(2-fluoroethyl)-2,3-dioxopiperazine-1-carboxamido)acetamido)-2-hydroxy-3,4-dihydro-2H-benzo[e][1,2]oxaborinine-8-carboxylic acid] | > 128 | > 128 | < 30 | 32 to 64 | < 0.25 | – | –
CCN1CCN(C(=O)N[C@@H](C(=O)N[C@H]2Cc3cccc(C(=O)O)c3OB2O)c2ccc(O)c(O)c2Cl)C(=O)C1=O [Example 190, (R)-3-((R)-2-(2-chloro-3,4-dihydroxyphenyl)-2-(4-ethyl-2,3-dioxopiperazine-1-carboxamido)acetamido)-2-hydroxy-3,4-dihydro-2H-benzo[e][1,2]oxaborinine-8-carboxylic acid] | 0.5 to 1 | < 0.25 | – | < 0.25 | < 0.25 | 30 to 500 | –
CCN1CCN(C(=O)NC(C(=O)N[C@H]2Cc3cccc(C(=O)O)c3OB2O)c2ccc(S(N)(=O)=O)c(F)c2)C(=O)C1=O (stereo partly drawn) [Example 210, (3R)-3-(2-(4-ethyl-2,3-dioxopiperazine-1-carboxamido)-2-(3-fluoro-4-sulfamoylphenyl)acetamido)-2-hydroxy-3,4-dihydro-2H-benzo[e][1,2]oxaborinine-8-carboxylic acid] | > 128 | > 128 | – | 2 to 4 | 0.5 to 1 | 30 to 500 | –
CCN1CCN(C(=O)N[C@@H](C(=O)N[C@H]2Cc3ccc(F)c(C(=O)O)c3OB2O)c2ccc(O)c(F)c2)C(=O)C1=O [Example 161, (R)-3-((R)-2-(4-ethyl-2,3-dioxopiperazine-1-carboxamido)-2-(3-fluoro-4-hydroxyphenyl)acetamido)-7-fluoro-2-hydroxy-3,4-dihydro-2H-benzo[e][1,2]oxaborinine-8-carboxylic acid] | > 128 | > 128 | < 30 | 8 to 16 | < 0.25 | – | –
CCN1CCN(C(=O)NC(C(=O)N[C@H]2Cc3ccc(F)c(C(=O)O)c3OB2O)c2csc(N)n2)C(=O)C1=O (stereo partly drawn) [Example 109, (3R)-3-(2-(2-aminothiazol-4-yl)-2-(4-ethyl-2,3-dioxopiperazine-1-carboxamido)acetamido)-7-fluoro-2-hydroxy-3,4-dihydro-2H-benzo[e][1,2]oxaborinine-8-carboxylic acid] | – | – | < 30 | – | – | – | > 100
CCN1CCN(C(=O)NC(C(=O)N[C@H]2Cc3ccc(F)c(C(=O)O)c3OB2O)c2ccc(O)c(O)c2F)C(=O)C1=O (stereo partly drawn) [Example 149, (3R)-3-(2-(4-ethyl-2,3-dioxopiperazine-1-carboxamido)-2-(2-fluoro-3,4-dihydroxyphenyl)acetamido)-7-fluoro-2-hydroxy-3,4-dihydro-2H-benzo[e][1,2]oxaborinine-8-carboxylic acid] | 2 to 4 | 8 to 16 | – | < 0.25 | < 0.25 | 30 to 500 | –
CCCN1CCN(C(=O)NC(C(=O)N[C@H]2Cc3cccc(C(=O)O)c3OB2O)c2ccc(O)c(O)c2Cl)C(=O)C1=O (stereo partly drawn) [Example 82, (3R)-3-(2-(2-chloro-3,4-dihydroxyphenyl)-2-(2,3-dioxo-4-propylpiperazine-1-carboxamido)acetamido)-2-hydroxy-3,4-dihydro-2H-benzo[e][1,2]oxaborinine-8-carboxylic acid] | – | – | < 30 | – | – | – | 10 to 100
CCN1CCN(C(=O)NC(C(=O)N[C@H]2Cc3cccc(C(=O)O)c3OB2O)c2cccs2)C(=O)C1=O (stereo partly drawn) [Example 115, (3R)-3-(2-(4-ethyl-2,3-dioxopiperazine-1-carboxamido)-2-(thiophen-2-yl)acetamido)-2-hydroxy-3,4-dihydro-2H-benzo[e][1,2]oxaborinine-8-carboxylic acid] | – | – | < 30 | – | – | – | > 100
CCN1CCN(C(=O)NC(C(=O)N[C@H]2Cc3cccc(C(=O)O)c3OB2O)c2cccc(N)n2)C(=O)C1=O (stereo partly drawn) [Example 104, (3R)-3-(2-(6-aminopyridin-2-yl)-2-(4-ethyl-2,3-dioxopiperazine-1-carboxamido)acetamido)-2-hydroxy-3,4-dihydro-2H-benzo[e][1,2]oxaborinine-8-carboxylic acid] | – | – | < 30 | – | – | – | > 100
CCN1CCN(C(=O)NC(C(=O)N[C@H]2Cc3cccc(C(=O)O)c3OB2O)c2cccc(O)n2)C(=O)C1=O (stereo partly drawn) [Example 117, (3R)-3-(2-(4-ethyl-2,3-dioxopiperazine-1-carboxamido)-2-(6-hydroxypyridin-2-yl)acetamido)-2-hydroxy-3,4-dihydro-2H-benzo[e][1,2]oxaborinine-8-carboxylic acid] | – | – | – | – | – | 30 to 500 | > 100
CCN1CCN(C(=O)NC(C(=O)N[C@H]2Cc3cccc(C(=O)O)c3OB2O)c2cnc(O)cn2)C(=O)C1=O (stereo partly drawn) [Example 121, (3R)-3-(2-(4-ethyl-2,3-dioxopiperazine-1-carboxamido)-2-(5-hydroxypyrazin-2-yl)acetamido)-2-hydroxy-3,4-dihydro-2H-benzo[e][1,2]oxaborinine-8-carboxylic acid] | – | – | – | – | – | 30 to 500 | > 100
CCN1CCN(C(=O)N[C@@H](C(=O)N[C@H]2Cc3ccc(F)c(C(=O)O)c3OB2O)[C@@H](C)O)C(=O)C1=O [Example 110, (R)-3-((2R,3R)-2-(4-ethyl-2,3-dioxopiperazine-1-carboxamido)-3-hydroxybutanamido)-7-fluoro-2-hydroxy-3,4-dihydro-2H-benzo[e][1,2]oxaborinine-8-carboxylic acid] | – | – | – | – | – | 30 to 500 | > 100
CCN1CCN(C(=O)NC(C(=O)N[C@H]2Cc3cccc(C(=O)[O-])c3OB2O)c2ccc[n+](CC(N)=O)c2)C(=O)C1=O (stereo partly drawn) [Example 107, (3R)-3-(2-(1-(2-amino-2-oxoethyl)pyridin-1-ium-3-yl)-2-(4-ethyl-2,3-dioxopiperazine-1-carboxamido)acetamido)-2-hydroxy-3,4-dihydro-2H-benzo[e][1,2]oxaborinine-8-carboxylate] | – | – | > 500 | – | – | – | > 100
CCN1CCN(C(=O)NC(C(=O)N[C@H]2Cc3cccc(C(=O)O)c3OB2O)c2ccc(B(O)O)cc2)C(=O)C1=O (some centres unmarked) [Example 112] | – | – | – | – | – | 30 to 500 | > 100
O=C(O)c1cccc2c1OB(O)[C@@H](NC(=O)C(NC(=O)N1CCN(CCF)C(=O)C1=O)c1ccc(B(O)O)cc1)C2 (stereo partly drawn) [Example 113, (3R)-3-(2-(4-boronophenyl)-2-(4-(2-fluoroethyl)-2,3-dioxopiperazine-1-carboxamido)acetamido)-2-hydroxy-3,4-dihydro-2H-benzo[e][1,2]oxaborinine-8-carboxylic acid] | – | – | – | – | – | 30 to 500 | > 100
CCN1CCN(C(=O)NC(C(=O)N[C@H]2Cc3cccc(C(=O)O)c3OB2O)c2cnc(N)s2)C(=O)C1=O (stereo partly drawn) [Example 51, (3R)-3-(2-(2-aminothiazol-5-yl)-2-(4-ethyl-2,3-dioxopiperazine-1-carboxamido)acetamido)-2-hydroxy-3,4-dihydro-2H-benzo[e][1,2]oxaborinine-8-carboxylic acid] | – | – | – | – | – | 30 to 500 | 10 to 100
